# From US11046700B2, “Substituted imidazo[1,2-a]pyrazines, pyrazolo[1,5-c]pyrimidines, pyrazolo[1,5-a]pyridines, and purines for the treatment of schistosomiasis” (Merck Patent GmbH, priority 2017, dated 2021)
# Where two headings read alike, the source gives them in different places.
# How the values were obtained:
# Assay type in all cases: cell-based
# S. mansoni adult worms = test: In vitro assay, S. mansoni adult worms; details: Schistosoma mansoni, read-out: (a) Adult
# Protocol: (§1) The routine biological assays using adult or juvenile worms and cytotoxicity assays using MRC-5 cells have been disclosed previously in Mansour, N. R., et al. (2016). “High Throughput Screening Identifies Novel Lead Compounds with Activity against Larval, Juvenile and Schistosoma mansoni PLoS Negl Trap Dis 10(4): e0004659. Cytotoxicity assays using the HepG2 cell line were carried out as described in Molecular Diversity (2015) 19, 251-261.
# (a) S. mansoni adult worms
# [1] = tested on: S. mansoni juvenile worms; test: In vitro assay, S. mansoni juvenile worms; details: Schistosoma mansoni, read-out: (b) Juvenile
# Protocol: as §1
# (b) S. mansoni juvenile worms
# HepG2 cell line = test: Cytotoxicity against human HepG2 cell lines
# [2] = S. mansoni adult worms, in vitro
# [3] = S. mansoni juvenile worms, in vitro
SMILES,IC50 (S. mansoni adult worms; [2]),"IC50 [1, 3]",IC50 (S. mansoni adult worms),IC50 [1],(e) Cytotox HepG2 (HepG2 cell line)
"CC(C)c1nc2cnc(-c3ccc(F)c(C(F)(F)F)c3)cn2c1-c1c(F)cc(OP(=O)(O)O)cc1F [Example 40, 3,5-difluoro-4-{6-[4-fluoro-3-(trifluoromethyl)phenyl]-2-(propan-2-yl)imidazo[1,2-a]pyrazin-3-yl}phenoxyphosphonic acid]",,,0.027 µM,0.025 µM,6.5 µM
"CC(C)c1nn2cnc(-c3ccc(F)c(C(F)(F)F)c3)cc2c1-c1c(F)cc(O)cc1F [Example 47, 3,5-difluoro-4-(5-(4-fluoro-3-(trifluoromethyl)phenyl)-2-isopropylpyrazolo[1,5-c]pyrimidin-3-yl)phenol]",0.022 µM,0.027 µM,,,8.9 µM
"CCc1nn2cnc(-c3ccc(F)c(C(F)(F)F)c3)cc2c1-c1c(F)cc(O)cc1F [Example 48, 4-(2-ethyl-5-(4-fluoro-3-(trifluoromethyl)phenyl)pyrazolo[1,5-c]pyrimidin-3-yl)-3,5-difluorophenol]",0.011 µM,0.032 µM,,,9.8 µM
"Cc1nc2cnc(-c3cccc(C(F)(F)C(F)(F)F)c3)cn2c1-c1c(F)cc(O)cc1F [Example 49, 3,5-difluoro-4-[2-methyl-6-[3-(pentafluoroethyl)phenyl]imidazo[1,2-a]pyrazin-3-yl]phenol]",0.034 µM,0.035 µM,,,9.3 µM
"CCc1nc2cnc(-c3cccc(C(F)(F)C(F)(F)F)c3)cn2c1-c1c(F)cc(O)cc1F [Example 52, 4-[2-Ethyl-6-(3-pentafluoroethyl-phenyl)-imidazo[1,2-a]pyrazin-3-yl]-3,5-difluoro-phenol]",< 0.012 µM,0.01 µM,,,8.0 µM
"Cc1nc2cnc(-c3ccc(F)c(C(F)(F)C(F)(F)F)c3)cn2c1-c1c(F)cc(O)cc1F [Example 53, 3,5-Difluoro-4-[6-(4-fluoro-3-pentafluoroethyl-phenyl)-2-methyl-imidazo[1,2-a]pyrazin-3-yl]-phenol]",0.019 µM,0.02 µM,,,8.8 µM
"Oc1cc(F)c(-c2c(C3CC3)nc3cnc(-c4ccc(F)c(S(F)(F)(F)(F)F)c4)cn23)c(F)c1 [Example 56, 4-[2-Cyclopropyl-6-(4-fluoro-3-pentafluorosulfanyl-phenyl)-imidazo[1,2-a]pyrazin-3-yl]-3,5-difluoro-phenol]",0.019 µM,0.02 µM,,,10.1 µM
"CC(C)c1nn2cnc(-c3ccc(F)c(C(F)(F)C(F)(F)F)c3)cc2c1-c1ccc2[nH]ncc2c1F [Example 58, 3-(4-Fluoro-1H-indazol-5-yl)-5-(4-fluoro-3-pentafluoroethyl-phenyl)-2-isopropylpyrazolo[1,5-c]pyrimidine]",0.031 µM,0.02 µM,,,10.8 µM
"CC(C)c1cccc(-c2cn3c(-c4ccc5[nH]ncc5c4F)c(C(F)(F)F)nc3cn2)c1 [Example 66, 3-(4-Fluoro-1H-indazol-5-yl)-6-(3-isopropyl-phenyl)-2-trifluoromethyl-imidazo[1,2-a]pyrazine]",0.0052 µM,0.0052 µM,,,12.9 µM
"CC(C)c1cc(-c2cn3c(-c4ccc5[nH]ncc5c4F)c(C(C)C)nc3cn2)ccc1F [Example 74, 3-(4-Fluoro-1H-indazol-5-yl)-6-(4-fluoro-3-isopropyl-phenyl)-2-isopropyl-imidazo[1,2-a]pyrazine]",0.004 µM,0.005 µM,,,11.0 µM
"CCc1nc2cnc(-c3ccc(F)c(C(C)C)c3)cn2c1-c1ccc2[nH]ncc2c1F [Example 75, 2-Ethyl-3-(4-fluoro-1H-indazol-5-yl)-6-(4-fluoro-3-isopropyl-phenyl)-imidazo[1,2-a]pyrazine]",0.004 µM,0.005 µM,,,11.3 µM
"CC(C)c1cc(-c2cn3c(-c4ccc5[nH]ncc5c4F)c(C4CCC4)nc3cn2)ccc1F [Example 77, 2-Cyclobutyl-3-(4-fluoro-1H-indazol-5-yl)-6-(4-fluoro-3-isopropyl-phenyl)-imidazo[1,2-a]pyrazine]",0.007 µM,0.004 µM,,,10.8 µM
"CC(C)c1cc(-c2cn3c(-c4ccc5[nH]ncc5c4F)c(C4CC4)nc3cn2)ccc1F [Example 79, 2-Cyclopropyl-3-(4-fluoro-1H-indazol-5-yl)-6-(4-fluoro-3-isopropyl-phenyl)-imidazo[1,2-a]pyrazine]",0.005 µM,0.005 µM,,,15.7 µM
"CC(C)c1cc(-c2cn3c(-c4ccc5[nH]ncc5c4Cl)c(C(F)(F)F)nc3cn2)ccc1F [Example 83, 3-(4-Chloro-1H-indazol-5-yl)-6-(4-fluoro-3-isopropyl-phenyl)-2-trifluoromethyl-imidazo[1,2-a]pyrazine]",< 0.012 µM,0.015 µM,,,6.6 µM
"CC(C)Oc1cccc(-c2cn3c(-c4ccc5[nH]ncc5c4F)c(C(F)(F)F)nc3cn2)c1 [Example 86, 3-(4-Fluoro-1H-indazol-5-yl)-6-(3-isopropoxy-phenyl)-2-trifluoromethyl-imidazo[1,2-a]pyrazine]",0.017 µM,0.026 µM,,,13.2 µM
"CC(C)c1cc(-c2cn3c(-c4ccc5[nH]ncc5c4F)c(C(F)(F)F)nc3cn2)ccn1 [Example 87, 3-(4-Fluoro-1H-indazol-5-yl)-6-(2-isopropyl-pyridin-4-yl)-2-trifluoromethyl-imidazo[1,2-a]pyrazine]",0.037 µM,0.091 µM,,,9.5 µM
"CC(C)c1nc2cnc(-c3ccc(F)c(C(F)(F)F)c3)nc2n1-c1c(F)cc(O)cc1F [Example 89, 3,5-Difluoro-4-[2-(4-fluoro-3-trifluoromethyl-phenyl)-8-isopropyl-purin-9-yl]-phenol]",0.071 µM,0.128 µM,,,4.8 µM
"CC(C)c1nc2cnc(-c3cccc(C(F)(F)F)c3)nc2n1-c1ccc(O)cc1F [Example 90, 3-fluoro-4-[8-(propan-2-yl)-2-[3-(trifluoromethyl)phenyl]-9H-purin-9-yl]phenol]",0.077 µM,0.468 µM,,,9.3 µM

# Second part, led by results:
IC50 (S. mansoni adult worms; [2]),"IC50 [1, 3]",SMILES,IC50 (S. mansoni adult worms),IC50 [1],(e) Cytotox HepG2 (HepG2 cell line)
0.017 µM,0.03 µM,"Fc1ccc(-c2cn3c(-c4ccc5[nH]ncc5c4F)c(C4CC4)nc3cn2)cc1S(F)(F)(F)(F)F [Example 57, 2-Cyclopropyl-3-(4-fluoro-1H-indazol-5-yl)-6-(4-fluoro-3-pentafluorosulfanyl-phenyl)-imidazo[1,2-a]pyrazine]",,,14.8 µM
0.044 µM,0.011 µM,"Fc1ccc(-c2cn3c(-c4ccc5[nH]ncc5c4F)c(C(F)(F)F)nc3cn2)cc1S(F)(F)(F)(F)F [Example 65, 3-(4-Fluoro-1H-indazol-5-yl)-6-(4-fluoro-3-pentafluorosulfanyl-phenyl)-2-trifluoromethyl-imidazo[1,2-a]pyrazine]",,,11.1 µM
0.012 µM,0.01 µM,"Fc1ccc(-c2cn3c(-c4ccc5[nH]ncc5c4F)c(C(F)(F)F)nc3cn2)cc1CC(F)(F)F [Example 69, 3-(4-Fluoro-1H-indazol-5-yl)-6-[4-fluoro-3-(2,2,2-trifluoro-ethyl)-phenyl]-2-trifluoromethyl-imidazo[1,2-a]pyrazine]",,,5.3 µM
0.014 µM,0.021 µM,"Fc1ccc(-c2cn3c(-c4ccc5[nH]ncc5c4F)c(C(F)(F)F)nc3cn2)cc1OC(F)(F)F [Example 71, 3-(4-Fluoro-1H-indazol-5-yl)-6-(4-fluoro-3-trifluoromethoxy-phenyl)-2-trifluoromethyl-imidazo[1,2-a]pyrazine]",,,12.2 µM
0.021 µM,0.023 µM,"Fc1c(-c2c(C(F)(F)F)nc3cnc(-c4cccc(OC(F)(F)F)c4)cn23)ccc2[nH]ncc12 [Example 72, 3-(4-Fluoro-1H-indazol-5-yl)-6-(3-trifluoromethoxy-phenyl)-2-trifluoromethyl-imidazo[1,2-a]pyrazine]",,,9.7 µM
0.011 µM,0.012 µM,"CC(C)Oc1cc(-c2cn3c(-c4ccc5[nH]ncc5c4F)c(C(F)(F)F)nc3cn2)ccc1F [Example 81, 3-(4-Fluoro-1H-indazol-5-yl)-6-(4-fluoro-3-isopropoxy-phenyl)-2-trifluoromethyl-imidazo[1,2-a]pyrazine]",,,9.2 µM
0.045 µM,0.059 µM,"Fc1ccc(-c2cn3c(-c4ccc5[nH]ncc5c4F)c(C(F)(F)F)nc3cn2)cc1C1CCC1 [Example 82, 6-(3-Cyclobutyl-4-fluoro-phenyl)-3-(4-fluoro-1H-indazol-5-yl)-2-trifluoromethyl-imidazo[1,2-a]pyrazine]",,,6.1 µM
0.012 µM,0.019 µM,"Fc1ccc(-c2cn3c(-c4ccc5[nH]ncc5c4F)c(C(F)(F)F)nc3cn2)cc1C1CC1 [Example 84, 6-(3-Cyclopropyl-4-fluoro-phenyl)-3-(4-fluoro-1H-indazol-5-yl)-2-trifluoromethyl-imidazo[1,2-a]pyrazine]",,,10.5 µM
0.116 µM,0.14 µM,"Fc1c(-c2c(C(F)(F)F)nc3cnc(-c4ccnc(C(F)(F)F)c4)cn23)ccc2[nH]ncc12 [Example 88, 3-(4-Fluoro-1H-indazol-5-yl)-2-trifluoromethyl-6-(2-trifluoromethyl-pyridin-4-yl)-imidazo[1,2-a]pyrazine]",,,7.0 µM
